Series [1] relates to adjuvant arthritis. In words: Adjuvant Arthritis Assay (Chronic). To be noted: po, 336 h, read-out: ED50, development of adjuvant arthritis. Format: in vivo, rat.
In series [2] the test system is subplantar injection of trypsin. In words: Modified Trypsin Hyperalgesic Assay. Format: in vivo. As to conditions: drug administration 15 minutes before subplantar trypsin.
Series [3] concerns stasis-induced jugular vein thrombosis. In words: Protection against stasis-induced jugular vein thrombosis. Format: in vivo. To be noted: guinea pig; given 1 hour prior to ligation. Here is the method: b. Protection against stasis-induced jugular vein thrombosis: When a 1 cm length of guinea pig jugular vein is ligated in situ, a thrombus forms within 30 min. Six mg/kg p.o. of either Compound II or aspirin given 1 hour prior to ligation protected 50% of the animals from thrombosis.

The subject of series [4] is platelets. In words: Ex vivo platelet aggregation after oral dosing, arachidonate and collagen (method of Born), rat. Format: in vivo. To be noted: read-out: dose required to inhibit aggregation rate by 50% (ED50). The protocol:
(§1) b. Ex vivo studies: The aggregation of platelets taken from animals dosed by the oral route with Compound II is inhibited when tested with arachidonate and collagen by the method of Born ((1962) Nature 194, 927, 929). The dose required to inhibit aggregation rate by 50% (ED50) at 1 hour was 5 mg/kg and 10 mg/kg in the guinea pig and rat, respectively. By comparison, the ED50 for aspirin in the guinea pig was 30 mg/kg, while the ED50 for aspirin in the rat was 10 mg/kg. The ED50 for indomethacin was 10 mg/kg and 5 mg/kg in the guinea pig and rat, respectively. In the dog, 10 mg/kg p.o. was an ED50 for as long as 6 hr.

The test system of series [5] is exudate fluid volume. In words: Carrageenin Pleurisy Assay (Acute). Format: in vivo, rat. As to conditions: 3 h, read-out: 3 hr. ED50 against exudate fluid volume. The source says: a. […] In this assay, the 3 hr.
Series [6] concerns gastric erosion. Format: in vivo. As to conditions: guinea pig.
The test system of series [7] is gastric damage. The class given is in vivo. As to conditions: rat.
Series [8] deals with platelets. In words: Ex vivo platelet aggregation after oral dosing, arachidonate and collagen (method of Born), guinea pig. The class given is in vivo. As to conditions: Cavia porcellus, read-out: dose required to inhibit aggregation rate by 50% (ED50). Here is the method:
as §1

Series [9] deals with Yeast-induced hyperthermia. In words: Yeast-Induced Hyperthermia Assay. Format: in vivo, rat.
For series [10], the system named is dog platelets. In words: Ex vivo platelet aggregation after oral dosing, dog. The class given is in vivo. To be noted: Canis lupus familiaris, for as long as 6 hr. The protocol: as §1

Results on 3 compounds are retold here after patent EP0058890A1, “Antithrombotic compounds” (THE WELLCOME FOUNDATION LIMITED, priority 1981, dated 1982).

As usually defined, the ED50 is the dose at which the effect has come halfway, by size or by number of responders.

Each structure is given as a SMILES string. Read-outs that look alike come from different tables or passages of the source.

With `CC(=O)Oc1ccccc1C(=O)O` [aspirin], the ED50 is 175 mg/kg in series [1] (Rattus norvegicus); “inactive” in [2]; 10 mg/kg in series [4] (Rattus norvegicus, po, 1 h); 28 mg/kg in [5] (Rattus norvegicus, po); 30 mg/kg in series [8] (po, 1 h); 50 mg/kg in series [9] (Rattus norvegicus, po). For the same compound, in [3], the “dose that protected 50% of the animals from thrombosis” value is reported as “Six”. Moreover, the gastric damage entry in [6] (100 mg/kg/day p.o. for 3 days) was “severe ulceration and hemorrhage”; in series [7] (single oral dose of 30 mg/kg), “produces ulcers and hemorrhages”. Besides, the hypothermia entry in [9] (rat, for Compound II 3-4 hours after dosing) was “does not produce hypothermia”.

For the compound `COc1ccc2c(c1)c(CC(=O)O)c(C)n2C(=O)c1ccc(Cl)cc1` [indomethacin], the 50% effective dose (ED50) in [1] (Rattus norvegicus) is 1 mg/kg; in series [2], “inactive”; in series [4] (Rattus norvegicus, po, 1 h), 5 mg/kg; in series [5] (Rattus norvegicus, po) it was 2 mg/kg; in [8] (po, 1 h) it was 10 mg/kg. Besides, the gastric damage entry in [7] (single oral dose of 5 mg/kg) is recorded as “produces ulcers”.

For the compound `CN(C)CCOc1ccccc1-c1nc(-c2ccccc2)c(-c2ccccc2)[nH]1` [Compound II], the ED50 was 10 mg/kg in series [10]; 294 mg/kg in series [1] (rat, by gavage for 14 days); roughly 50 mg/kg in [2] (read-out: ED50); 10 mg/kg in series [4] (rat, oral route, at 1 hour, arachidonate and collagen); 37 mg/kg in [5] (rat, oral route); 5 mg/kg in series [8] (guinea pig, oral route, at 1 hour, arachidonate and collagen). The gastric damage result was “very slight gastric erosion” in series [6] (in vivo, po, 100 mg/kg/day); “does not produce gastric damage” in series [7] (in vivo, po, 75 mg/kg/day); “does not produce gastric damage” in series [7] (in vivo, po, 150 mg/kg).
